Data taken from PubChem BioAssay (NCI).
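Five compound concentrations were applied to cells in 96-well plates for 48 hours; endpoints were derived by simple linear interpolation of the resulting dose-response curve. TGI: concentration producing complete growth inhibition.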

Legend:
Experiment in all cases: NCI anticancer screen, dose series, 48 h
786-0 renal = test system: 786-0 renal
ACHN renal = test system: ACHN renal
CAKI-1 renal = test system: CAKI-1 renal
CCRF-CEM leukemia = test system: CCRF-CEM leukemia
COLO 205 colon = test system: COLO 205 colon
DU-145 prostate = test system: DU-145 prostate
HCC-2998 colon = test system: HCC-2998 colon
HOP-92 NSCLC = test system: HOP-92 NSCLC
HS 578T breast = test system: HS 578T breast
K-562 leukemia = test system: K-562 leukemia
MDA-MB-231 breast = test system: MDA-MB-231 breast
MDA-N = test system: MDA-N
NCI-H460 lung = test system: NCI-H460 lung
NCI-H522 lung = test system: NCI-H522 lung
OVCAR-8 ovarian = test system: OVCAR-8 ovarian
SF-539 CNS = test system: SF-539 CNS
SK-MEL-5 melanoma = test system: SK-MEL-5 melanoma
SNB-75 CNS = test system: SNB-75 CNS
T-47D breast = test system: T-47D breast
TK-10 renal = test system: TK-10 renal

Structure (SMILES) | TGI (786-0 renal) [µM] | TGI (ACHN renal) [µM] | TGI (CAKI-1 renal) [µM] | TGI (CCRF-CEM leukemia) [µM] | TGI (COLO 205 colon) [µM] | TGI (DU-145 prostate) [µM] | TGI (HCC-2998 colon) [µM] | TGI (HOP-92 NSCLC) [µM] | TGI (HS 578T breast) [µM] | TGI (K-562 leukemia) [µM] | TGI (MDA-MB-231 breast) [µM] | TGI (MDA-N) [µM] | TGI (NCI-H460 lung) [µM] | TGI (NCI-H522 lung) [µM] | TGI (OVCAR-8 ovarian) [µM] | TGI (SF-539 CNS) [µM] | TGI (SK-MEL-5 melanoma) [µM] | TGI (SNB-75 CNS) [µM] | TGI (T-47D breast) [µM] | TGI (TK-10 renal) [µM]
CCOC(=O)CCC(NC(=O)c1ccc(Oc2nc3ccccc3nc2-c2ccccc2)cc1)C(=O)OCC (stereo not given) | > 28.7 | > 66.9 | > 66.4 | > 100 | > 100 | > 100 | > 100 | 13.4 | 27.3 | > 100 | 65.9 | > 85.4 | > 100 | 40.2 | 16 | 15 | > 100 | 26.2 | > 72.1 | > 56.8
CN=c1c2c(c3[nH]c4ccccc4c4cnc1c34)NCCC2=O | > 10 | > 10 | > 10 | > 10 | > 10 | > 10 | > 10 | > 10 | > 10 | > 10 | > 10 | > 10 | > 10 | > 10 | > 10 | > 10 | > 10 | > 10 | > 10 | > 10
CC1(C)CC2=C(Sc3ccccc3N2)C(=O)C1C(=O)C(=O)Nc1cccc([N+](=O)[O-])c1 (stereo not given) | > 100 | > 100 | > 100 | > 100 | > 100 | > 100 | > 100 | > 100 | > 100 | > 100 | > 100 | > 100 | > 100 | > 100 | > 100 | > 100 | > 100 | > 100 | > 100 | > 100
